# Measured values reported in US7501233B2, “Method for measuring the vitality of cells” (priority 2000, dated 2009).
# *1 amine or outer side, *2 acyl side, *3 side chain or, on linkers, in order; H or OH if unused. Where a SMILES comes first, the peptide text is derived from it. Bridges are numbered along the chain shown (N, C = ends). Roman numbers before positions name the chains, in order. [ ]: non-standard residue; d: D form. Actinocin(9to1) = Cc1c2oc3c(C)ccc(C(=O)[*:1])c3nc-2c(C(=O)[*:2])c(N)c1=O; NMeV = CN[C@H](C(=O)O)C(C)C; Sar = CNCC(=O)O
# System: Jurkat cells
# Assay: Electrorotation measurement (ER spectra) of single cells in a microelectrode field cage
# Format: cell-based
# Source text: An instrument already described by C. C. Reichle, T. Schnelle, T. Müller, T. Leya and G. Fuhr (2000, A new microsystem for automatic electrorotation measurements using laser tweezers, Biochimica et Biophysica Acta 1459, p. 218- 229), a combination of dielectrophoretical field cages with optical traps, especially laser tweezers, was used for determination of the electrorotation spectra (FIG. 6). […] Reichle and G. Fuhr 2000, Combined dielectrophoretic field cages and laser tweezers for electrorotation, Applied Physics B, Lasers and Optics, Springer Verlag.
# Jurkat T lymphoma cells and U937 monocytic cells were cultivated in RPMI-1640 medium supplemented with 10% fetal calf serum and 100 IU/ml penicillin as well as 100 IU/ml streptomycin. Apoptosis was triggered by addition of 5 μg/ml actinomycin D in a culture that was seeded the day before with 2×10^5 cells per ml. The classical morphological changes during apoptosis were documented photographically (see FIG. 1). At different times, an aliquot was taken from the culture, added to a mixture of isotonic phosphate buffer (PBS, D8662 from SIGMA with calcium and magnesium) and, if desired, 0.3 M inositol with correspondingly indicated electrical conductivity, and introduced in a device for measurement of the electrorotation in a microelectrode system. As a control, untreated Jurkat cells were used (FIG. 5). For comparison, electrorotation spectra (ER spectra) were determined from ionomycin-treated cells ([…]) as well as from cells the plasma membrane of which had been damaged by increasing the voltage from 4 V to 6.8 V or a treatment with optical tweezers with 30-60 mW (2.8 A of the 1 W Nd:YAG laser, TEM00, 1064 nm, LD 3000i, Laser Quantum Ltd., Manchester, UK, P.A.L.M. System) for 15 minutes. For this, the cells were transferred individually to the center of the quadrupole or octupole of the microelectrode system. For this, optical tweezers with a power of approx. 30 mW were used in the indicated cases at the site of holding. The frequency of the cell rotation was measured either automatically or using a timer (FIG. 2). The uptake of propidium iodine (5 μm) in necrotically damaged cells or comparative measurements with vital and apoptotic cells (FIGS. 3 and 4) was measured by confocal nanofluorometry (Gradl, T. Müller, C. Reichle, T. Schnelle and G. Fuhr, 1999, Micro-Electrode Systems for Cell Analysis, European Journal of Cell Biology, Suppl. 49, Vol. 78; T. Schnelle, T. Müller, G. Gradl, S. G. Shirley and G. Fuhr, 2000, Dielectrophoretic manipulation of suspended submicron particles, ELECTROPHORESIS 2000, 21, p. 66-73).
# The device for measurement of the electrorotation was attached to a fluorescence correlation spectrometer. The cells were made visible over a 40×W 1.2 NA lens. They were excited with 1.5 μW by a helium-neon laser with a wavelength of 543 nm and the radiated fluorescence was passed through a 585 DF 35 band pass filter over a 50 μm pinhole to a photodiode, with which the fluorescence photons were counted.
# [1] = ionomycin-treated cell vs. untreated cell, PBS
SMILES,"dielectric constant εω in the cell (ionomycin 10 μM, Jurkat cell in PBS, from fits of ER spectra, increase from 45 (untreated))","conductivity σ (as sum of σ0, Δσ1 and Δσ2) in the cell (ionomycin 10 μM, approx. 5 min, Jurkat cell in PBS, from fits of ER spectra, increase from 0.77 (untreated)) [s m^−1]",increase in the HF conductivity of the cytoplasm [1],increase of the dielectric constant of the cytoplasm [1],"ratio of rotation speed at 10 MHz to rotation speed at 2.5 MHz (apoptotic Jurkat cell (actinomycin D, 4 hours), normal cell near 1, necrotic 0.6-0.8)","field frequency of highest rotation speed in ER spectrum (apoptotic Jurkat cell, 5 μg/ml actinomycin D for 4 hours (FIG. 2E), normal cell maximum around 2.5 MHz)"
"C[C@H](CCC(=O)O)C[C@H](C)C[C@H](C)C(=O)/C=C(\O)[C@H](C)C[C@H](C)C/C=C/[C@@H](C)[C@@H](O)[C@@H](C)[C@@H](O)C[C@@H]1CC[C@@](C)([C@H]2CC[C@@](C)([C@@H](C)O)O2)O1 [ionomycin, Ionomycin]",75,1.15,approx. 40%,more than 60%,–,–
"Cc1c2oc3c(C)ccc(C(=O)N[C@@H]4C(=O)N[C@H](C(C)C)C(=O)N5CCC[C@H]5C(=O)N(C)CC(=O)N(C)[C@@H](C(C)C)C(=O)O[C@@H]4C)c3nc-2c(C(=O)N[C@@H]2C(=O)N[C@H](C(C)C)C(=O)N3CCC[C@H]3C(=O)N(C)CC(=O)N(C)[C@@H](C(C)C)C(=O)O[C@@H]2C)c(N)c1=O [actinomycin D, Actinomycin D] (I: T[dV]P[Sar][NMeV] / II: T[dV]P[Sar][NMeV]; ester I:1-I:C, II:1-II:C; linker I:N-II:N via Actinocin(9to1))",–,–,–,–,1.4,approx. 10 MHz
